Patent US9408856B2, “Topical steroidal formulations” (Temple University—Of The Commonwealth System of Higher …, priority 2008, dated 2016)
Where “and” joins values, the source holds several entries; their conditions need not be identical. Equal entries are not always repeated.

System: TPA-stimulated epidermal DNA synthesis in mouse epidermis
Assay: TPA-induced epidermal DNA synthesis in mouse epidermis, transdermal fluasterone
Assay type: in vivo, CD-1 mice
Details: 20 h
[1] = carbitol solution, 1.25 mg/kg transdermal (abdomen) 1 h before 2 μg TPA (back), single mice, 1.25 mg/kg
[2] = carbitol solution, 2.5 mg/kg transdermal (abdomen) 1 h before 2 μg TPA (back), single mice, 2.5 mg/kg
[3] = carbitol solution, 5 mg/kg transdermal (abdomen) 1 h before 2 μg TPA (back), single mice, 5 mg/kg
[4] = ethanol:limonene:isopropyl myristate (81:15:4) solution, 1.5 mg/kg transdermal (abdomen) 1 h before 2 μg TPA (back), single mice, 1.5 mg/kg
[5] = ethanol:limonene:isopropyl myristate (81:15:4) solution, 5 mg/kg transdermal (abdomen) 1 h before 2 μg TPA (back), single mice, 5 mg/kg
[6] = micronized suspension in ethanol:water:Tween 80 (76:19:5), 1.5 mg/kg transdermal (abdomen) 1 h before 2 μg TPA (back), single mice and group mean, 1.5 mg/kg
[7] = micronized suspension in ethanol:water:Tween 80 (76:19:5), 1.5 mg/kg transdermal (abdomen) 1 h before 2 μg TPA (back), single mice, 1.5 mg/kg
[8] = micronized suspension in ethanol:water:Tween 80 (76:19:5), 2.5 mg/kg transdermal (abdomen) 1 h before 2 μg TPA (back), single mice, 2.5 mg/kg

C[C@]12CCCCC1=CC[C@@H]1[C@@H]2CC[C@]2(C)C(=O)[C@H](F)C[C@@H]12 [Fluasterone, 16α-fluoro-5-androsten-17-one]
cpm/μg DNA (carbitol solution, 1.25 mg/kg transdermal (abdomen) 1 h before 2 μg TPA (back), single mice and group mean, 1.25 mg/kg): 270.1 cpm/μg DNA and 341.3 cpm/μg DNA and 287.9 ± 25.2 cpm/μg DNA | corrected cpm [1]: 6,051 cpm and 10,170 cpm | cpm [1]: 6,086 cpm and 10,205 cpm | μg DNA/0.2 mL [1]: 22.4 μg DNA/0.2 mL and 29.8 μg DNA/0.2 mL | μg DNA/0.2 mL (carbitol solution, 1.9 mg/kg transdermal (abdomen) 1 h before 2 μg TPA (back), single mice, 1.9 mg/kg): 18.4 μg DNA/0.2 mL and 11.8 μg DNA/0.2 mL | cpm/μg DNA (carbitol solution, 2.5 mg/kg transdermal (abdomen) 1 h before 2 μg TPA (back), single mice and group mean, 2.5 mg/kg): 64.8 cpm/μg DNA and 73.8 cpm/μg DNA and 69.3 ± 6.3 cpm/μg DNA | corrected cpm [2]: 616 cpm and 649 cpm | cpm [2]: 651 cpm and 684 cpm | μg DNA/0.2 mL [2]: 9.5 μg DNA/0.2 mL and 8.8 μg DNA/0.2 mL | corrected cpm [3]: 5,338 cpm and 5,045 cpm | cpm [3]: 5,373 cpm and 5,080 cpm | μg DNA/0.2 mL [3]: 10.0 μg DNA/0.2 mL and 10.8 μg DNA/0.2 mL | μg DNA/0.2 mL (ethanol:limonene:isopropyl myristate (81:15:4) solution, 1.5 mg/kg transdermal (abdomen) 1 h before 2 μg TPA (back), single mice and group mean, 1.5 mg/kg): 25.8 μg DNA/0.2 mL and 25.1 μg DNA/0.2 mL | corrected cpm [4]: 5,854 cpm and 3,703 cpm | cpm [4]: 5,883 cpm and 3,732 cpm | μg DNA/0.2 mL (ethanol:limonene:isopropyl myristate (81:15:4) solution, 2.5 mg/kg transdermal (abdomen) 1 h before 2 μg TPA (back), single mice and group mean (p < 0.05 vs TPA), 2.5 mg/kg): 18.1 μg DNA/0.2 mL and 15.3 μg DNA/0.2 mL | μg DNA/0.2 mL (ethanol:limonene:isopropyl myristate (81:15:4) solution, 5 mg/kg transdermal (abdomen) 1 h before 2 μg TPA (back), single mice and group mean (p < 0.05 vs TPA), 5 mg/kg): 15.9 μg DNA/0.2 mL and 17.3 μg DNA/0.2 mL | cpm/μg DNA (ethanol:limonene:isopropyl myristate (81:15:4) solution, 5 mg/kg transdermal (abdomen) 1 h before 2 μg TPA (back), single mice and group mean, 5 mg/kg): 532.5 cpm/μg DNA and 603.2 cpm/μg DNA | corrected cpm [5]: 8,467 cpm and 10,436 cpm | cpm [5]: 8,496 cpm and 10,465 cpm | cpm/μg DNA [6]: 135.7 cpm/μg DNA and 98.9 cpm/μg DNA | μg DNA/0.2 mL [6]: 34.3 μg DNA/0.2 mL and 35.2 μg DNA/0.2 mL | corrected cpm [7]: 4,655 cpm and 3,481 cpm | cpm [7]: 4,684 cpm and 3,510 cpm | μg DNA/0.2 mL (micronized suspension in ethanol:water:Tween 80 (76:19:5), 2.5 mg/kg transdermal (abdomen) 1 h before 2 μg TPA (back), single mice and group mean (p < 0.02 vs TPA), 2.5 mg/kg): 19.6 μg DNA/0.2 mL and 16.6 μg DNA/0.2 mL | cpm/μg DNA (micronized suspension in ethanol:water:Tween 80 (76:19:5), 2.5 mg/kg transdermal (abdomen) 1 h before 2 μg TPA (back), single mice and group mean, 2.5 mg/kg): 109.5 cpm/μg DNA and 139.0 cpm/μg DNA | corrected cpm [8]: 2,147 cpm and 2,308 cpm | cpm [8]: 2,176 cpm and 2,337 cpm | μg DNA/0.2 mL (micronized suspension in ethanol:water:Tween 80 (76:19:5), 5 mg/kg transdermal (abdomen) 1 h before 2 μg TPA (back), single mice and group mean (p < 0.01 vs TPA), 5 mg/kg): 16.5 μg DNA/0.2 mL and 18.9 μg DNA/0.2 mL
